Tested on: Sphaerotheca fuliginea
Assay: Activity against mildew on cucumber leaves caused by Sphaerotheca fuliginea, protective application
Assay type: in vivo
Conditions: 250 ppm active compound, sprayed to runoff, cucumber seedlings, assessed after 7 days, untreated plants 90% infected
Description: The active compounds were separately prepared as a stock solution of 0.25% by weight of active compound in acetone or DMSO. 1% by weight of emulsifier Uniperol® EL (wetting agent having emulsifying and dispersing action based on ethoxylated alkylphenols) was added to this solution, and the solution was diluted with water to the desired concentration. Leaves of potted cucumber seedlings of the cultivar “Chinese snake” were, at the cotyledon stage, sprayed to runoff point with an aqueous suspension having the concentration of active compound stated below. 20 hours after the spray coating had dried on, the plants were inoculated with an aqueous spore suspension of mildew of cucumber (Sphaerotheca fuliginea). The plants were then cultivated in a greenhouse at temperatures between 20 and 24° C. and 60 to 80% relative atmospheric humidity for 7 days. The extent of the mildew development was then determined visually in % infection of the cotyledon area.

CC1CCN(c2c(-c3c(F)cc(F)cc3F)c(Cl)nc3c(Cl)cnn23)CC1 [III-1, 3,5-Dichloro-7-(4-methylpiperidin-1-yl)-6-(2,4,6-trifluorophenyl)-pyrazolo[1,5-a]pyrimidine]
extent of the mildew development, determined visually in % infection of the cotyledon area: no infection

From patent US20060258685A1, “Substituted pyrazolopyrimidines, methods for the production thereof, use of the same for controlling pathogenic fungi, and agents containing said compounds” (priority 2003, published 2006)
